Holding throughout (assay): SPR
Common to all, as to assay type: binding

One assay deals with T1, ADIPOR2 R331A (Homo sapiens, UniProt Q86V24, R331A).
T1 sequence (Q86V24 1-386 R331A): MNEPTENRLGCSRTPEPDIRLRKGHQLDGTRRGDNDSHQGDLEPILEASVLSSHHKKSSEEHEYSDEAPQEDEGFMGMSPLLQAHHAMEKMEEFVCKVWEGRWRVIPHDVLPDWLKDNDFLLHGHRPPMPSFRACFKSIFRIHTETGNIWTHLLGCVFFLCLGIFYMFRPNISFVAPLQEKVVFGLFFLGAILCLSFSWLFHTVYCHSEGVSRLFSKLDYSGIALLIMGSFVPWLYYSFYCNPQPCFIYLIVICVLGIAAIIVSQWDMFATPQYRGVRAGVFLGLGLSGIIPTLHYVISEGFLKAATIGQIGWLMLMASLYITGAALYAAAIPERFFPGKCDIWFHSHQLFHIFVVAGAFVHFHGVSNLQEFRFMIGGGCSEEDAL

The target in assay [1] is T2, ADIPOR2 (adiponectin receptor 2) (Homo sapiens, UniProt Q86V24).
T2 sequence (Q86V24 1-386): T1 sequence (Q86V24 1-386 R331A) with A331R

The target of the next assay is T3, ADIPOR2 R335A (Homo sapiens, UniProt Q86V24, R335A).
T3 sequence (Q86V24 1-386 R335A): T1 sequence (Q86V24 1-386 R331A) with A331R, R335A

Residue numbers refer to the chain shown, from its start.

The source of these data is article PMC11649909 (Nature Communications, 2024).

`COc1cc(C(=O)OCCCCNC(=N)N)cc(OC)c1O` [SCM-198]: the results for the Kd (at ADIPOR2 R331A; in assay [1]; at ADIPOR2 R335A) were 9.92 µM, 1.99 µM and 50.1 µM, respectively.
